Results on 103 compounds are retold here after ChEMBL document CHEMBL3507680, “University of Dundee, Gates Library screen for HepG2 cell viability”.

This data set can be described thus: Human HepG2 cell viability assay in 384 well format. It counts as toxicity, cell-based. On the set-up: dose 125 nL, time 70.5 hour; cytotoxicity at 70.5 h: concentration not given beside the values. The following applies: HepG2 cells, read-out: Inhibition.
As for `O=C(c1cc(-c2cccs2)nc2ccccc12)N1CCN(CCO)CC1`, the cytotoxicity at 70.5 h turned out to be 0.548%.
The value for `CC1Cn2c(nc3c2c(=O)[nH]c(=O)n3C)O1` (stereo not drawn) was -12.3%; that for `CN(C)S(=O)(=O)N1CCC(c2n[nH]cc2-c2ccnc(N)c2)C1` (stereo not drawn) was 5.75%; that for `Cc1c[nH]c(C2COCCN2C(=O)c2ccc(=O)[nH]n2)n1` (stereo not drawn) was -4.98%.
The result for `c1ccc(Cc2cccc(C3CCCN3C3CCOCC3)n2)cc1` (stereo not drawn) reads -13.2%.
Regarding `CC(=O)N1CC(C(=O)N2CCCC(Cn3ccnc3C)C2)C1` (stereo not drawn), the cytotoxicity at 70.5 h is -9.41%.
The result for `CCC(=O)N1CCCC1(C)c1nc(C)no1` (stereo not drawn) reads -6.82%; that for `OCC(CO)N1CCCC(Cc2ccnc(Nc3ccccn3)c2)C1` (stereo not drawn), -14.9%.
On to `O=C(NC1CCCN(c2ccccn2)C1)C1(c2ccccc2F)CC1` (stereo not drawn), for which the cytotoxicity at 70.5 h was 15.1%.
The result for `CNC(=O)c1sc2ccccc2c1C1CCN(c2nc(C)cc(C)n2)C1` (stereo not drawn) reads -6.07%.
The value for `Oc1cc(C2CCCCN2CC2CC2)nc(-c2ccncc2)n1` (stereo not drawn) was -10.4%; that for `Cc1nc(C2CCCCN2S(C)(=O)=O)no1` (stereo not drawn) was -13.4%; that for `Oc1cc(C2CCCCN2C2CCCC2)nc(-c2ccncc2)n1` (stereo not drawn) was -14.1%.
Take `Cc1nc(-c2ccc(F)cc2)cc(C2CCNCC2)n1`: the cytotoxicity at 70.5 h was -10%.
`Cc1nn(C(C)C)cc1S(=O)(=O)N(C)Cc1nonc1C`: the cytotoxicity at 70.5 h is -7.62%.
The value for `Cc1nnc(C2CCN(c3ccc(F)cc3)CC2)o1` was -9.58%; that for `CN(C)c1nccnc1C1CCN(C2CCCCC2O)CC1` (stereo not drawn) was -8.92%.
On to `CNc1cc(C2CN(C(=O)c3ccn(C)n3)CCO2)nc(C)n1` (stereo not drawn), for which the cytotoxicity at 70.5 h came out at 26.5%.
As for `CNc1cc(C2CN(C(=O)c3ccccc3)CCO2)nc(C)n1` (stereo not drawn), the cytotoxicity at 70.5 h was -5.28%.
`CNc1cc(C2CN(C(=O)c3cscn3)CCO2)nc(C)n1` (stereo not drawn): the cytotoxicity at 70.5 h was determined as 26%.
The value for `O=C(O)c1ccccc1-n1cnc(CN2CCc3ccccc32)c1` was -7.59%; that for `Cc1cc(C)nc(C2CCCN2S(=O)(=O)N2CCOCC2)n1` (stereo not drawn) was -4.98%.
The result for `Cc1cc(O)cc(C2CCCN2C(=O)c2ccncc2)n1` (stereo not drawn) reads -5.31%; that for `CC[C@@H](Cn1ncc2ccccc2c1=O)NC(=O)c1ccco1`, -8.28%; that for `Cc1ncc(CN2CCc3c(nc4cc(C5CC5)nn4c3O)C2)n1C`, -2.73%.
As to `O=C(Cc1cccc(F)c1F)NC1COc2ccccc2C1=O` (stereo not drawn), the cytotoxicity at 70.5 h was -10.6%.
As for `Cc1nn(C)c(C)c1NC(=O)CNC(c1ccccc1)C1CCCC1` (stereo not drawn), the cytotoxicity at 70.5 h was -9.64%.
The result for `CCCN(CCC)C(=O)c1sc(C)nc1C` reads -7.05%; that for `CC(SCCNS(=O)(=O)c1cnn(C)c1)c1cccs1` (stereo not drawn), -4.4%.
As for `CCc1cnc(CNC(=O)NC2CC(C)(C)OC2(C)C)s1` (stereo not drawn), the cytotoxicity at 70.5 h came out at 12.1%.
The value for `Cc1nc(C)c(CNC(=O)NC2CC(C)(C)OC2(C)C)s1` (stereo not drawn) was -0.473%.
As for `Cc1nc(-c2cccs2)ccc1C(=O)N1CCN(CCO)CC1`, the cytotoxicity at 70.5 h is 0.744%.
The result for `CCC(CC)(CNC(=O)c1cccn1Cc1cccnc1)N(C)C` reads -3.43%; that for `Cc1cc(NC(=O)c2ccc(C)c(F)c2)[nH]n1`, -1.85%.
The value for `Cc1ccc(-c2nc(CC(=O)NCC3CCOC3)cs2)o1` (stereo not drawn) was -2.56%.
The result for `COCCCc1nc(-c2ccc(S(=O)(=O)N3CCCC3)cc2)cs1` reads -4.93%; that for `CC(C#N)CN(C)Cc1cc(Cl)cc2cccnc12` (stereo not drawn), -0.893%; that for `Cc1ccc(-c2nc(CC(=O)NCC3CCCOC3)cs2)o1` (stereo not drawn), -0.602%.
For `CC1CCCN(C(=O)c2cn(-c3ccc(C(F)(F)F)cn3)nn2)C1` (stereo not drawn), the cytotoxicity at 70.5 h stood at 12.2%.
The value for `CCc1ccc2c(c1)C(CCNC(=O)CCc1ccsc1)C(=O)N2` (stereo not drawn) was -2.26%.
The result for `NS(=O)(=O)c1ccc(NCc2ccccc2)cc1C(F)(F)F` reads 4.82%; that for `CCc1nnc(S(=O)(=O)Cc2cc(Cl)c3c(c2)OCO3)n1C`, -1.18%; that for `CCN(C)S(=O)(=O)c1c(F)cc(NC(C)=O)cc1F`, -2.83%.
The value for `O=C(c1ccc(-c2cccs2)cc1F)N1CCN(CCO)CC1` was -2.06%; that for `Cc1nc(-c2ccccc2)ccc1C(=O)N1CCN(CCO)CC1` was -1.89%; that for `Cc1ccc(C(=O)N(C)S(C)(=O)=O)cc1Cl` was -1.55%.
Regarding `Cc1ccc(C)c(-n2ncc(NC(=O)NC3(C)CCOC3)c2C)c1` (stereo not drawn), the cytotoxicity at 70.5 h stood at 14.4%.
The result for `CC(C)C(C)NC(=O)c1cccn1Cc1cccnc1` (stereo not drawn) reads -0.474%.
The value for `Cc1ccc(C)c(-n2nnnc2SCN2CCCCC2=O)c1` was -3.06%; that for `CCOCCCNC(=O)c1cccn1Cc1cccnc1` was -4.46%; that for `CN1CCN(C(=O)CCC(=O)c2cccs2)Cc2ccccc21` was -0.893%.
The value for `CN1CCN(C(=O)c2cccs2)Cc2ccccc21` was -0.544%; that for `CC(=O)N(C)Cc1ccccc1NC(=O)c1ccccc1C` was -2.28%.
For `N#Cc1cnc2cc(F)cc(F)c2c1NC1CCN(CC(N)=O)CC1`, the cytotoxicity at 70.5 h was -4.4%.
Turning to `O=C(CSc1nnc(N2CCOCC2)s1)NCc1cccs1`, the cytotoxicity at 70.5 h was -2.54%.
Regarding `O=C(Nc1ccc(F)cc1)N1CCC(CO)(Nc2ccccc2)CC1`, the cytotoxicity at 70.5 h was determined as 0.526%.
The value for `CN(CC(=O)Nc1cnn(-c2ccccc2S(C)(=O)=O)c1)C1CC1` was -3.94%.
The result for `CC(C)C(NC(=O)N1CCS(=O)(=O)CC1)c1ccccc1Cl` (stereo not drawn) reads -5.93%; that for `Cn1cc(NS(=O)(=O)CCOc2ccc(F)cc2)cn1`, -4.23%; that for `Cc1cccc(C2CCCCCN2C(=O)c2cn(CC(N)=O)nn2)c1` (stereo not drawn), -6.65%.
With `Cc1ccc(S(=O)(=O)NC(=O)CCC(F)(F)F)cc1N(C)C`, the cytotoxicity at 70.5 h was -1.96%.
The value for `Cc1ccc(S(=O)(=O)NC(=O)CCc2ccccc2)cc1N(C)C` was -5.27%; that for `O=C(Nc1cn[nH]c1)N1CCCCCC1c1ccncc1` (stereo not drawn) was -8.75%.
The value for `CC(NC(=O)N1CCNC(=O)CC1)c1c(F)cccc1Cl` (stereo not drawn) was -4.44%; that for `CCCS(=O)(=O)N1CCN(C(C)(C)CO)CC1` was 15.5%.
The result for `CN(CC(C)(CO)CO)C(=O)Nc1cc(F)cc(Cl)c1` reads -6.37%; that for `CC(NCCCN1CCCC1=O)c1ccc(F)cc1N(C)C` (stereo not drawn), -4.56%; that for `CC(NCC1(N(C)C)CCOCC1)c1ccc(S(C)(=O)=O)cc1` (stereo not drawn), -3.6%.
Take `CC(NCCCN1CCCC1=O)c1cc(Br)ccc1O` (stereo not drawn): the cytotoxicity at 70.5 h was -5.37%.
The result for `Cn1cc(NCCOc2ccc(F)cc2)cn1` reads -5.12%.
The result for `Cc1ccc(O)c(CNc2cccc(CN3CCN(C)CC3)c2)n1` reads -0.441%; that for `CC1CCCCN1C(=O)CCc1nnc(-c2ccccc2)o1` (stereo not drawn), -1.68%; that for `NC(=O)CS(=O)(=O)Cc1csc(-c2ccccc2)n1`, -4.61%.
As for `O=C(Cc1ccc2c(c1)CCCC2)Nc1cccnc1N1CCSCC1`, the cytotoxicity at 70.5 h was -7.86%.
The result for `O=C(Nc1cccnc1N1CCSCC1)c1cc2c(s1)CCCCC2` reads -6.67%; that for `Cc1nc(-c2ccccc2)sc1CNC(=O)c1ccc(=O)n(C)c1`, -3.22%.
The value for `Cc1c(C(=O)N2CCC2)nnn1-c1ccc2ncccc2c1` was -3.53%; that for `Cc1ccc(S(=O)(=O)Nc2ccc(-n3ccnc3C)nc2)cc1N(C)C` was -2.22%; that for `Cc1cccc(NCc2nc(C)ccc2O)c1` was -1.28%.
The result for `COCCN1CCC(CNC(=O)CCc2cc(F)ccc2F)C1` (stereo not drawn) reads -4.52%; that for `CCc1ccc(C(=O)N2CCCN(Cc3csc(CC)n3)CC2)o1`, 6.45%; that for `CCN1CCN(C(=O)c2ccc(OC)nn2)c2ccccc21`, -0.876%.
For the compound `CN(C)C(=O)CN(C)C(=O)c1cccn1CCc1ccccc1`, the cytotoxicity at 70.5 h is -3.57%.
The value for `c1cnnc(N2CCCC(NCc3cccc4c3OCO4)C2)c1` (stereo not drawn) was 1.39%.
Consider `COc1ccc(OC)c(CNC2CCCN(c3cccnn3)C2)c1` (stereo not drawn), for which the cytotoxicity at 70.5 h was -3.12%.
As to `CCc1nc(CN2CCN(C(=O)c3cc(C)nn3C)CC2)cs1`, the cytotoxicity at 70.5 h is -6.68%.
The result for `CCN1CCN(C(=O)c2csnn2)c2ccccc21` reads 9.42%; that for `CS(=O)(=O)Cc1noc(CN(Cc2ccco2)c2ccccc2)n1`, -5.15%.
The result for `NC(=O)c1ccc(CNC(=O)NCc2cc[nH]n2)cc1` reads -12.2%; that for `Cc1noc(C)c1C(=O)N(C)C(C)c1ccc(S(C)(=O)=O)cc1` (stereo not drawn), -20.5%.
The value for `O=C(NCC1CCOC1)c1cc(-c2ccc(Cl)cc2)n[nH]1` (stereo not drawn) was 20.6%; that for `CC(NC(=O)NC1CCN(Cc2ccncc2)CC1)c1ccccc1F` (stereo not drawn) was -22.4%.
In the case of `Cc1cc(N(C)CC2COc3ccccc3O2)nc(N)n1` (stereo not drawn), the cytotoxicity at 70.5 h is -5.43%.
The result for `COc1cccc(CNC(=O)C(C)N2CC(n3nc(C)cc3C)C2)c1` (stereo not drawn) reads -12.9%; that for `Cc1noc(C)c1C(=O)N(C)C(C)c1cccnc1` (stereo not drawn), -15.6%.
The result for `COc1ccccc1CNC(=O)C(C)N1CC(n2cc(C)cn2)C1` (stereo not drawn) reads -10.8%; that for `CNS(=O)(=O)CC(=O)N(C1CCCC1)C1CC1`, -12.4%; that for `CN(CCOc1ccccc1)C(=O)Nc1cccn(C)c1=O`, 20.8%.
The value for `O=C1CSCN1Cc1nc(-c2ccc(N3CCCCC3)cc2)no1` was -5.66%; that for `O=C1OCCCN1Cc1nc(-c2ccc(N3CCCCC3)cc2)no1` was -11.4%; that for `Cc1nccn1-c1cccc(C2CCCN2)n1` (stereo not drawn) was -13.4%.
Consider `Cc1nc(-c2ccc(F)c(F)c2)cc(C2CCNCC2)n1`, for which the cytotoxicity at 70.5 h is -2.44%.
The result for `CCC(CN1CCOCC1)n1cncc1-c1ccc2c(c1)CCN2CC` (stereo not drawn) reads 21%.
